Like-named read-outs stand apart in the source and are kept apart here.
Legend:
[1] = test system: BCC (basal cell carcinoma); assay: Cell viability analysis, skin cancer BCC; format: cell-based, human
T24 = assay: Cell viability analysis, bladder cancer T24; format: cell-based, human
NIH: OVCAR-3 = assay: Cell viability analysis, ovarian cancer NIH: OVCAR-3; format: cell-based, human
[2] = test system: Hep3B (hepatocellular carcinoma); assay: Cell viability analysis, hepatic cancer Hep3B; format: cell-based, human
[3] = test system: HepG2 (Hepatocellular Carcinoma); assay: Cell viability analysis, hepatic cancer HepG2; format: cell-based, human
[4] = test system: PC3 (p53−) (Prostate Adenocarcinoma); assay: Cell viability analysis, prostate cancer PC3; format: cell-based, human
[5] = test system: LoVo (Colorectal Adenocarcinoma); assay: Cell viability analysis, colon cancer LoVo; format: cell-based, human
[6] = test system: MKN-45 (Gastric Adenocarcinoma); assay: Cell viability analysis, gastric cancer MKN-45; format: cell-based, human
[7] = test system: SAS (Tongue squamous cell carcinoma); assay: Cell viability analysis, tongue cancer SAS; format: cell-based, human
TOV-21G = assay: Cell viability analysis, ovarian cancer TOV-21G; format: cell-based, human
AsPC-1 = assay: Cell viability analysis, pancreatic cancer AsPC-1; format: cell-based, human
[8] = test system: A549 (Lung Adenocarcinoma); assay: Cell viability analysis, lung cancer A549; format: cell-based, human
[9] = test system: AGS (Gastric Adenocarcinoma); assay: Cell viability analysis, gastric cancer AGS; format: cell-based, human
U-2OS = assay: Cell viability analysis, osteosarcoma U-2OS; format: cell-based, human
[10] = test system: MCF7 (Mammary Gland, Adenocarcinoma); assay: Cell viability analysis, breast cancer MCF7; format: cell-based, human
[11] = test system: A375 (Amelanotic Melanoma); assay: Cell viability analysis, skin cancer A375; format: cell-based, human
[12] = test system: 786-O (Renal adenocarcinoma); assay: Cell viability analysis, renal cancer 786-O; format: cell-based, human
[13] = test system: HI650 (Lung Adenocarcinoma); assay: Cell viability analysis, lung cancer HI650; format: cell-based, human
BxPC-3 = assay: Cell viability analysis, pancreatic cancer BxPC-3; format: cell-based, human
[14] = test system: TSGH-8301 (Urinary Bladder Carcinoma); assay: Cell viability analysis, bladder cancer TSGH-8301; format: cell-based, human
[15] = test system: HCT116 (p53+) (Colorectal Carcinoma)
[16] = test system: MDA-MB-231 (Mammary Gland, Adenocarcinoma); assay: Cell viability analysis, breast cancer MDA-MB-231; format: cell-based, human
[17] = test system: C-33A (Cervical carcinoma); assay: Cell viability analysis, cervical cancer C-33A; format: cell-based, human
[18] = test system: HeLa (Cervix Adenocarcinoma); assay: Cell viability analysis, cervical cancer HeLa; format: cell-based, human

CCCSc1ccc2[nH]c(NC(=O)OC)nc2c1 [Albendazole (Albenza)]
The results of antibiotic drug inhibiting cancer cell lines (cell viability analysis), BCC ([1]; BCC, repeated experiment): 31.25
The results of antibiotic drug inhibiting cancer cell lines (cell viability analysis), T24 (T24; T24, repeated experiment): 37.98
The results of antibiotic drug inhibiting cancer cell lines (cell viability analysis), NIH-OVCAR-3 (NIH: OVCAR-3; NIH-OVCAR-3, repeated experiment): 52.49
The results of antibiotic drug inhibiting cancer cell lines (cell viability analysis), Hep3B ([2]; Hep3B, repeated experiment): 61.38
The results of antibiotic drug inhibiting cancer cell lines (cell viability analysis), HepG2 ([3]; HepG2, repeated experiment): 62.7
The results of antibiotic drug inhibiting cancer cell lines (cell viability analysis), PC-3 ([4]; PC-3, repeated experiment): 37.99
The results of antibiotic drug inhibiting cancer cell lines (cell viability analysis), LoVo ([5]; LoVo, repeated experiment): 50.79
The results of antibiotic drug inhibiting cancer cell lines (cell viability analysis), MKN-45 ([6]; MKN-45, repeated experiment): 62.34
The results of antibiotic drug inhibiting cancer cell lines (cell viability analysis), SAS ([7]; SAS, repeated experiment): 36.08
The results of antibiotic drug inhibiting cancer cell lines (cell viability analysis), TOV-21G (TOV-21G; TOV-21G, repeated experiment): 29.79
The results of antibiotic drug inhibiting cancer cell lines (cell viability analysis), AsPC-1 (AsPC-1; AsPC-1, repeated experiment): 35.28
The results of antibiotic drug inhibiting cancer cell lines (cell viability analysis), A549 ([8]; A549, repeated experiment): 24.2
The results of antibiotic drug inhibiting cancer cell lines (cell viability analysis), AGS ([9]; AGS, repeated experiment): 29.46
The results of antibiotic drug inhibiting cancer cell lines (cell viability analysis), U2OS (U-2OS; U2OS, repeated experiment): 50.07
The results of antibiotic drug inhibiting cancer cell lines (cell viability analysis), MCF-7 ([10]; MCF-7, repeated experiment): 69.83
The results of antibiotic drug inhibiting cancer cell lines (cell viability analysis), A375 ([11]; A375, repeated experiment): 36.21
The results of antibiotic drug inhibiting cancer cell lines (cell viability analysis), 786-O ([12]; 786-O, repeated experiment): 21.55
The results of antibiotic drug inhibiting cancer cell lines (cell viability analysis), H1650 ([13]; H1650, repeated experiment): 41.75
The results of antibiotic drug inhibiting cancer cell lines (cell viability analysis), BxPC-3 (BxPC-3; BxPC-3, repeated experiment): 36.62
The results of antibiotic drug inhibiting cancer cell lines (cell viability analysis), TSGH-8301 ([14]; TSGH-8301, repeated experiment): 46.61
viability [15]: 20.9%
The results of antibiotic drug inhibiting cancer cell lines (cell viability analysis), MDA-MB231 ([16]; MDA-MB231, repeated experiment): 44.52
The results of antibiotic drug inhibiting cancer cell lines (cell viability analysis), C-33A ([17]; C-33A, repeated experiment): 42.62
The results of antibiotic drug inhibiting cancer cell lines (cell viability analysis), HeLa ([18]; HeLa, repeated experiment): 29.9

Cc1cc(C#N)cc(C)c1Oc1nc(Nc2ccc(C#N)cc2)nc(N)c1Br [Etravirine (TMC125)]
The results of antibiotic drug inhibiting cancer cell lines (cell viability analysis), BCC [1]: 46.3
The results of antibiotic drug inhibiting cancer cell lines (cell viability analysis), T24 (T24): 56.73
The results of antibiotic drug inhibiting cancer cell lines (cell viability analysis), NIH-OVCAR-3 (NIH: OVCAR-3): 64.29
The results of antibiotic drug inhibiting cancer cell lines (cell viability analysis), Hep3B [2]: 78.35
The results of antibiotic drug inhibiting cancer cell lines (cell viability analysis), HepG2 [3]: 68.31
The results of antibiotic drug inhibiting cancer cell lines (cell viability analysis), PC-3 [4]: 53.42
The results of antibiotic drug inhibiting cancer cell lines (cell viability analysis), LoVo [5]: 45.66
The results of antibiotic drug inhibiting cancer cell lines (cell viability analysis), MKN-45 [6]: 62.38
The results of antibiotic drug inhibiting cancer cell lines (cell viability analysis), SAS [7]: 34.01
The results of antibiotic drug inhibiting cancer cell lines (cell viability analysis), TOV-21G (TOV-21G): 28.26
The results of antibiotic drug inhibiting cancer cell lines (cell viability analysis), AsPC-1 (AsPC-1): 41.11
The results of antibiotic drug inhibiting cancer cell lines (cell viability analysis), A549 [8]: 37
The results of antibiotic drug inhibiting cancer cell lines (cell viability analysis), AGS [9]: 49.66
The results of antibiotic drug inhibiting cancer cell lines (cell viability analysis), U2OS (U-2OS): 36.38
The results of antibiotic drug inhibiting cancer cell lines (cell viability analysis), MCF-7 [10]: 56.33
The results of antibiotic drug inhibiting cancer cell lines (cell viability analysis), A375 [11]: 37.32
The results of antibiotic drug inhibiting cancer cell lines (cell viability analysis), 786-O [12]: 59.38
The results of antibiotic drug inhibiting cancer cell lines (cell viability analysis), H1650 [13]: 51.13
The results of antibiotic drug inhibiting cancer cell lines (cell viability analysis), BxPC-3 (BxPC-3): 41.88
The results of antibiotic drug inhibiting cancer cell lines (cell viability analysis), TSGH-8301 [14]: 56.13
viability [15]: 54.1%
The results of antibiotic drug inhibiting cancer cell lines (cell viability analysis), MDA-MB231 [16]: 95.38
The results of antibiotic drug inhibiting cancer cell lines (cell viability analysis), C-33A [17]: 63.88
The results of antibiotic drug inhibiting cancer cell lines (cell viability analysis), HeLa [18]: 47.73

CC[C@H](C)C(=O)O[C@H]1CCC=C2C=C[C@H](C)[C@H](CC[C@@H]3C[C@@H](O)CC(=O)O3)[C@H]21 [Mevastatin]
viability at 10 µM ([1]; Homo sapiens, 72 h, BCC, repeated experiment, read-out: The results of antibiotic drug inhibiting cancer cell lines (cell viability analysis), BCC): 29.8%
viability at 10 µM (T24; Homo sapiens, T-24, 72 h, T24, repeated experiment, read-out: The results of antibiotic drug inhibiting cancer cell lines (cell viability analysis), T24): 67.5%
viability at 10 µM (NIH: OVCAR-3; Homo sapiens, 72 h, NIH-OVCAR-3, repeated experiment, read-out: The results of antibiotic drug inhibiting cancer cell lines (cell viability analysis), NIH-OVCAR-3): 100%
viability at 10 µM ([2]; Homo sapiens, 72 h, Hep3B, repeated experiment, read-out: The results of antibiotic drug inhibiting cancer cell lines (cell viability analysis), Hep3B): 97.7%
viability at 10 µM ([3]; Homo sapiens, HepG2, 72 h, HepG2, repeated experiment, read-out: The results of antibiotic drug inhibiting cancer cell lines (cell viability analysis), HepG2): 98.7%
viability at 10 µM ([4]; Homo sapiens, 72 h, PC-3, repeated experiment, read-out: The results of antibiotic drug inhibiting cancer cell lines (cell viability analysis), PC-3): 65.6%
viability at 10 µM ([5]; Homo sapiens, LoVo, 72 h, read-out: The results of antibiotic drug inhibiting cancer cell lines (cell viability analysis), LoVo, repeated experiment): 90.5%
viability at 10 µM ([6]; Homo sapiens, MKN-45, 72 h, MKN-45, repeated experiment, read-out: The results of antibiotic drug inhibiting cancer cell lines (cell viability analysis), MKN-45): 92.7%
viability at 10 µM ([7]; Homo sapiens, 72 h, SAS, repeated experiment, read-out: The results of antibiotic drug inhibiting cancer cell lines (cell viability analysis), SAS): 81%
viability at 10 µM (TOV-21G; Homo sapiens, TOV21G, 72 h, TOV-21G, repeated experiment, read-out: The results of antibiotic drug inhibiting cancer cell lines (cell viability analysis), TOV-21G): 44.7%
viability at 10 µM (AsPC-1; Homo sapiens, ASPC1, 72 h, AsPC-1, repeated experiment, read-out: The results of antibiotic drug inhibiting cancer cell lines (cell viability analysis), AsPC-1): 72.3%
viability at 10 µM ([9]; Homo sapiens, 72 h, AGS, repeated experiment, read-out: The results of antibiotic drug inhibiting cancer cell lines (cell viability analysis), AGS): 71.2%
viability at 10 µM (U-2OS; Homo sapiens, 72 h, U2OS, repeated experiment, read-out: The results of antibiotic drug inhibiting cancer cell lines (cell viability analysis), U2OS): 85.3%
viability at 10 µM ([10]; Homo sapiens, MCF7, 72 h, MCF-7, repeated experiment, read-out: The results of antibiotic drug inhibiting cancer cell lines (cell viability analysis), MCF-7): 77.8%
viability at 10 µM ([11]; Homo sapiens, A-375, 72 h, A375, repeated experiment, read-out: The results of antibiotic drug inhibiting cancer cell lines (cell viability analysis), A375): 30.9%
viability at 10 µM ([12]; Homo sapiens, 786-0, 72 h, 786-O, repeated experiment, read-out: The results of antibiotic drug inhibiting cancer cell lines (cell viability analysis), 786-O): 48%
viability at 10 µM ([13]; Homo sapiens, NCI-H1650, 72 h, H1650, repeated experiment, read-out: The results of antibiotic drug inhibiting cancer cell lines (cell viability analysis), H1650): 69.4%
viability at 10 µM (BxPC-3; Homo sapiens, 72 h, BxPC-3, repeated experiment, read-out: The results of antibiotic drug inhibiting cancer cell lines (cell viability analysis), BxPC-3): 83.6%
viability at 10 µM ([14]; Homo sapiens, 72 h, TSGH-8301, repeated experiment, read-out: The results of antibiotic drug inhibiting cancer cell lines (cell viability analysis), TSGH-8301): 94.4%
viability [15]: 73.6%
viability at 10 µM ([16]; Homo sapiens, MDA-MB-231, 72 h, MDA-MB231, repeated experiment, read-out: The results of antibiotic drug inhibiting cancer cell lines (cell viability analysis), MDA-MB231): 56.1%
viability at 10 µM ([17]; Homo sapiens, 72 h, C-33A, repeated experiment, read-out: The results of antibiotic drug inhibiting cancer cell lines (cell viability analysis), C-33A): 102%
viability at 10 µM ([18]; Homo sapiens, HeLa, 72 h, HeLa, repeated experiment, read-out: The results of antibiotic drug inhibiting cancer cell lines (cell viability analysis), HeLa): 90.5%
